The structures appear in SMILES notation. Numbering of substitutions follows the chain as printed.

In general, EC50 refers to the concentration needed to bring the measured effect to its halfway point.

For one experiment, the target named is T1, rP2X4R I209A mutant (Rattus norvegicus, UniProt P51577, I209A).
T1 construct: expressed in transfected cells; host or cells: HEK293T
T1 sequence (P51577 1-388 I209A): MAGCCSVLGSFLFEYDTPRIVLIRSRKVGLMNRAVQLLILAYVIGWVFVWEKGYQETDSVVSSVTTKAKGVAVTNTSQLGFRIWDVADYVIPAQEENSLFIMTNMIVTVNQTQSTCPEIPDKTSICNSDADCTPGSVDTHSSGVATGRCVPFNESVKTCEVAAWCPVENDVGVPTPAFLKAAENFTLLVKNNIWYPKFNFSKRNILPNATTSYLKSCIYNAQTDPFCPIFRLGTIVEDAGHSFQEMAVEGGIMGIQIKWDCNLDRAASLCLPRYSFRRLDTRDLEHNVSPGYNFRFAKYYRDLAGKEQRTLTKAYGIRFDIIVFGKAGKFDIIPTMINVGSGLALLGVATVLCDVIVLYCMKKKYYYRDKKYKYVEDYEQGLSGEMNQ
In words: whole-cell patch clamp, HEK293T cells expressing mutant. It counts as cell-based. Background: The patch-clamp technique gives a direct electrical read-out from membranes.

The target in another experiment is T2, rP2X4R S289A mutant (Rattus norvegicus, UniProt P51577, S289A).
T2 construct: expressed in transfected cells; host or cells: HEK293T
T2 sequence (P51577 1-388 S289A): T1 sequence (P51577 1-388 I209A) with A209I, S289A
The description is as above. Type of experiment: cell-based.

Setting [1] is: 100 µM ATP 60 s, biexponential fit.
The mark [2] stands for this setting: contribution of τdes2, 100 µM ATP 60 s.
[3] abbreviates: decay after removal of 1 or 3 µM ATP, 3 µM IVM.
[4] abbreviates: naïve receptors, 2–5 s application.
[5] abbreviates: 3 µM IVM 4-6 min vs IVM-untreated.

`Nc1ncnc2c1ncn2[C@@H]1O[C@H](COP(=O)(O)OP(=O)(O)OP(=O)(O)O)[C@@H](O)[C@H]1O` [ATP]: the τdes1 came out at 2.1 ± 0.8 s on rP2X4R I209A mutant (setting [1]) and 0.9 ± 0.3 s at rP2X4R S289A mutant (setting [1]). Moreover, the τdes2 on rP2X4R I209A mutant (setting [1]) amounted to 9.3 ± 2.6 s; at rP2X4R S289A mutant (setting [1]), 11.3 ± 0.6 s. The figures for the Imax on rP2X4R I209A mutant (100–1000 µM ATP) and on rP2X4R S289A mutant (100–1000 µM ATP) were 1.9 ± 0.4 nA and 1.4 ± 0.2 nA, respectively. Further, the entries for the “Imax+IVM” value at rP2X4R I209A mutant (ATP after 3 µM IVM 4-6 min) and at rP2X4R S289A mutant (ATP after 3 µM IVM 4-6 min) were 4.1 ± 0.8 nA and 4.5 ± 1.1 nA, respectively. The results for the “A2 /(A1+A2)” value at rP2X4R I209A mutant (setting [2]) and at rP2X4R S289A mutant (setting [2]) were 70 ± 2% and 56 ± 7%, respectively. Besides, the “τoff +IVM” value on rP2X4R I209A mutant (setting [3]) is reported as 22 ± 3.0 s; at rP2X4R S289A mutant (setting [3]) it was 15 ± 1.1 s. Also, the half-maximal effective concentration (EC50) at rP2X4R I209A mutant (setting [4]) turned out to be 4.3 ± 2.1 µM; on rP2X4R S289A mutant (setting [4]) it was 3.6 ± 1.9 µM. The τdes at rP2X4R I209A mutant (weighted, 100 µM ATP 60 s) was determined as 6.3 ± 0.2 s; at rP2X4R S289A mutant (weighted, 100 µM ATP 60 s), 6.8 ± 1.0 s.
As to `CC[C@H](C)[C@H]1O[C@]2(CC[C@@H]1C)C[C@@H]1C[C@@H](C/C=C(\C)[C@@H](O[C@H]3C[C@H](OC)[C@@H](O[C@H]4C[C@H](OC)[C@@H](O)[C@H](C)O4)[C@H](C)O3)[C@@H](C)/C=C/C=C3\CO[C@@H]4[C@H](O)C(C)=C[C@@H](C(=O)O1)[C@]34O)O2` [IVM, ivermectin], the figures for the “Fold incr. Imax” value at rP2X4R I209A mutant (setting [5]) and on rP2X4R S289A mutant (setting [5]) were 2.1 ± 0.3 fold and 3.2 ± 0.2 fold, respectively.

For the origin of these results see paper PMC4232510, “Identification of Functionally Important Residues of the Rat P2X4 Receptor by Alanine Scanning Mutagenesis of the Dorsal Fin and Left Flipper Domains” (PLoS ONE, 2014).
